Results published in patent US10752900B2, “Oligonucleotides for modulating gene expression and uses thereof” (BIOGENERA S.P.A., priority 2012, dated 2020).

Legend:
MYC [1] = assay: QT-PCR, MYC mRNA in H82 cells; assay type: cell-based; details: Table 11, 2.5 μM
Procedure: (§1) For the purpose of assessing the ability of the oligonucleotides of the present invention to modulate the expression of the target genes, their ability to reduce the quantity of messenger RNA was analyzed using the Real-Time PCR technique.
(§2) The cells were treated with the oligonucleotides, adding FBS up to 4% 6 hours after administration of the same. After 24 hours the total RNA was extracted from each well and purified using the RNeasy Mini Kit (QIAGEN).
(§3) As a control, use was made of the same cell lines as listed above treated with sterile water instead of oligonucleotides. Each RNA sample was quantified (in duplicate) using a NanoDrop ND-1000 spectrophotometer (NanoDrop Technologies). The first strand of cDNA was produced using the cDNA Synthesis Kit for RT-PCR (Roche). For the cDNA synthesis reaction a total of 1 μg of RNA was used. For the real-time PCR, 10 ng of cDNA in a final volume of 20 μl was used with SYBR Green Master Mix 2× (Applied Biosystems) (3 identical experiments were conducted in triplicate). Two housekeeping genes were used as positive controls: GAPDH and beta-actin (ACTB).
(§4) The conditions of the QT-PCR reaction were: 10 min at 95° C., 20 sec at 95° C., and 30 sec at 60° C., for 50 cycles.
(§5) The oligonucleotides were tested in vitro (at a concentration of 2.5 μM) to determine their ability to inhibit the transcription of the gene they are directed against by measuring the levels of the gene messenger in cellular models in which the gene of interest is overexpressed. The methods used are the ones described in example 1.
(§6) In particular, SEQ ID NO: 66-69 (directed against MYCN) were tested in vitro in the Kelly and H69 cell lines; SEQ ID NO: 70-74 (directed against MYC) were tested in vitro in the H82 and RD cell lines, SEQ ID NO: 75, 76 (directed against BIRC5) were tested in vitro in the Kelly cell line, SEQ ID NO: 77-79 (directed against ALK) were tested in vitro in the Kelly cell line, SEQ ID NO: 80-82 (directed against BCL2) were tested in vitro in the Kelly cell line and SEQ ID NO: 83, 84 (directed against PLK4) were tested in vitro in the Kelly cell line.
(§7) The ability of the tested oligonucleotides to inhibit the messenger of the gene of interest was measured and the proliferative capacity of the cells following administration of the oligonucleotides was also assessed.

H82 = assay: Cellular proliferation, H82 cells; assay type: cell-based; details: Table 11, MYC-directed PNA, 2.5 μM
Procedure: (§8) For this purpose 5×10^3 cells per well were seeded into 96-well cell culture plates (experiments conducted in triplicate) with 100 μl of OPTI-MEM (GIBCO BRL) medium containing 4% FBS and 2 mM of L-glutammine.
(§9) Cell viability was assessed by means of an ATP-Lite assay (Luminescence ATP Detection Assay System, PerkinElmer) and is reported as the ratio between the average signal of the treated wells compared to the average value of the wells of untreated control cells. The cells were processed following the instructions provided with the kit.
as §5, §6, §7

MYC [2] = assay: QT-PCR, MYC mRNA in RD cells; assay type: cell-based; details: Table 11, 2.5 μM
Procedure: as §1, §2, §3, §4, §5, §6, §7

RD = assay: Cellular proliferation, RD cells; assay type: cell-based; details: Table 11, MYC-directed PNA, 2.5 μM
Procedure: as §8, §9, §5, §6, §7

Kelly cells = assay: Cellular proliferation assay (ATP-Lite), Kelly cells; assay type: cell-based, human; details: 2.5 μM
Procedure: For the purpose of assessing the gene modulation ability of the oligonucleotides of the present invention, the effect of their administration on cell viability was determined.
as §8
The PNA oligonucleotides were administered at different concentrations (1 μM-2.5 μM-5 μM-10 μM) in order to observe a dose-effect relationship.
As regards all the other oligonucleotides, the concentrations at which they administered are listed in the paragraph:
The viability of the treated cells was determined at 48, 72, 96 and 168 hours after treatment.
as §9
The assays were performed on the same cell lines used to determine the levels of the MYCN gene messenger and listed in the paragraph: Treatments with Oligonucleotides—QT-PCR.
As far as the PNA oligonucleotides are concerned, the results regarding their ability to inhibit the transcription of the MYCN gene and proliferation of Kelly cells are shown in Table 1.
as §7

BIRC5 = assay: QT-PCR, BIRC5 mRNA in Kelly cells; assay type: cell-based, human; details: Table 11, 2.5 μM
Procedure: as §1, §2
as §3, with “(ACTB). […]” for “(ACTB).”
as §7

ALK = assay: QT-PCR, ALK mRNA in Kelly cells; assay type: cell-based, human; details: Table 11, 2.5 μM
Procedure: as §1, §2, §3, §4
(§10) The oligonucleotides were tested in vitro (at a concentration of 2.5 μM) to determine their ability to inhibit the transcription of the gene they are directed against by measuring the levels of the gene messenger in cellular models in which the gene of interest is overexpressed. The methods used are the ones described in example 1. […]
as §7

BCL2 = assay: QT-PCR, BCL2 mRNA in Kelly cells; assay type: cell-based, human; details: Table 11, 2.5 μM
Procedure: as §1, §2, §3, §4, §10, §7

PLK4 = assay: QT-PCR, PLK4 mRNA in Kelly cells; assay type: cell-based, human; details: Table 11; PLKA4, Kelly cells; 2.5 μM
Procedure: as §1, §2
as §3, with “(ACTB). […]” for “(ACTB).”
as §7

Row | Substance | mRNA inhibit. (%) (MYC [1]) | Cell Prolif. (%) (H82) | mRNA inhibit. (%) (MYC [2]) | Cell Prolif. (%) (RD) | also measured
1 | SEQ ID NO: 70: PNA CTCAGAGGCTTGGCGG directed against MYC (all peptide nucleic acid (PNA); antigene PNA) | 43 | 79 | 34 | 73 | 
2 | SEQ ID NO: 71: PNA GCGGCCGGCTAGGGTG directed against MYC (all peptide nucleic acid (PNA); antigene PNA) | 46 | 75 | 42 | 65 | 
3 | SEQ ID NO: 72: PNA CGGCCGGCTAGGGTGG directed against MYC (all peptide nucleic acid (PNA); antigene PNA) | 52 | 64 | 58 | 53 | 
4 | SEQ ID NO: 73: PNA CGACGGCGGTGGCGGG directed against MYC (all peptide nucleic acid (PNA); antigene PNA) | 56 | 65 | 59 | 51 | 
5 | SEQ ID NO: 74: PNA GGACGGGGGCGGTGGA directed against MYC (all peptide nucleic acid (PNA); antigene PNA) | 61 | 61 | 64 | 47 | 
6 | SEQ ID NO: 75: PNA GCGGCGGCATGGGTGC directed against BIRC5 (all peptide nucleic acid (PNA); antigene PNA) |  |  |  |  | Cell Prolif. (%) (Kelly cells; Table 11, BIRC5-directed PNA): 43%; mRNA inhibit. (%) (BIRC5): 69%
7 | SEQ ID NO: 76: PNA GGCGGCGGCATGGGTG directed against BIRC5 (all peptide nucleic acid (PNA); antigene PNA) |  |  |  |  | Cell Prolif. (%) (Kelly cells; Table 11, BIRC5-directed PNA): 35%; mRNA inhibit. (%) (BIRC5): 78%
8 | SEQ ID NO: 77: PNA GCAGGAGAGGACGGTA directed against ALK (all peptide nucleic acid (PNA); antigene PNA) |  |  |  |  | Cell Prolif. (%) (Kelly cells; Table 11, ALK-directed PNA): 55%; mRNA inhibit. (%) (ALK): 57%
9 | SEQ ID NO: 78: PNA CAGGAGAGGACGGTAC directed against ALK (all peptide nucleic acid (PNA); antigene PNA) |  |  |  |  | Cell Prolif. (%) (Kelly cells; Table 11, ALK-directed PNA): 46%; mRNA inhibit. (%) (ALK): 68%
10 | SEQ ID NO: 79: PNA GGCAGGAGAGGACGGT directed against ALK (all peptide nucleic acid (PNA); antigene PNA) |  |  |  |  | Cell Prolif. (%) (Kelly cells; Table 11, ALK-directed PNA): 39%; mRNA inhibit. (%) (ALK): 79%
11 | SEQ ID NO: 80: PNA GGATGGCGCACGCTGG directed against BCL2 (all peptide nucleic acid (PNA); antigene PNA) |  |  |  |  | Cell Prolif. (%) (Kelly cells; Table 11, BCL2-directed PNA): 62%; mRNA inhibit. (%) (BCL2): 59%
12 | SEQ ID NO: 81: PNA GGGAAGGATGGCGCAC directed against BCL2 (all peptide nucleic acid (PNA); antigene PNA) |  |  |  |  | Cell Prolif. (%) (Kelly cells; Table 11, BCL2-directed PNA): 58%; mRNA inhibit. (%) (BCL2): 62%
13 | SEQ ID NO: 82: PNA CCACGGTGGTGGAGGA directed against BCL2 (all peptide nucleic acid (PNA); antigene PNA) |  |  |  |  | Cell Prolif. (%) (Kelly cells; Table 11, BCL2-directed PNA): 55%; mRNA inhibit. (%) (BCL2): 68%
14 | SEQ ID NO: 83: PNA ACGGCAAGCGGCGGGA directed against PLK4 (all peptide nucleic acid (PNA); antigene PNA) |  |  |  |  | Cell Prolif. (%) (Kelly cells; Table 11, PLK4-directed PNA): 59%; mRNA inhibit. (%) (PLK4): 62%
15 | SEQ ID NO: 84: PNA GGACGGCAAGCGGCGG directed against PLK4 (all peptide nucleic acid (PNA); antigene PNA) |  |  |  |  | Cell Prolif. (%) (Kelly cells; Table 11, PLK4-directed PNA): 49%; mRNA inhibit. (%) (PLK4): 74%
